Source: ChEMBL document CHEMBL5543121, “Drug Repurposing of ACT001 to Discover Novel Promising Sulfide Prodrugs with Improved Safety and Potent Activity for Neutrophil-Mediated Antifungal Immunotherapy” (J Med Chem, 2024)
Activity calls are given as the source filed them. The calls are words filed in the database; no cut-off is given here.

Legend:
[1] = Cytotoxicity against mouse polymorphonuclear neutrophils assessed as cell viability at 20 uM incubated for 16 hrs; format: toxicity, cell-based; details: polymorphonuclear neutrophil
[2] = biological target: Signal transducer and activator of transcription 3 (Homo sapiens, UniProt P40763); test: Binding affinity to Cys542 residue of human recombinant STAT3 assessed as covalent modification by measuring mass shift by LC-MS/MS analysis
Sequence of Signal transducer and activator of transcription 3 (P40763 whole entry): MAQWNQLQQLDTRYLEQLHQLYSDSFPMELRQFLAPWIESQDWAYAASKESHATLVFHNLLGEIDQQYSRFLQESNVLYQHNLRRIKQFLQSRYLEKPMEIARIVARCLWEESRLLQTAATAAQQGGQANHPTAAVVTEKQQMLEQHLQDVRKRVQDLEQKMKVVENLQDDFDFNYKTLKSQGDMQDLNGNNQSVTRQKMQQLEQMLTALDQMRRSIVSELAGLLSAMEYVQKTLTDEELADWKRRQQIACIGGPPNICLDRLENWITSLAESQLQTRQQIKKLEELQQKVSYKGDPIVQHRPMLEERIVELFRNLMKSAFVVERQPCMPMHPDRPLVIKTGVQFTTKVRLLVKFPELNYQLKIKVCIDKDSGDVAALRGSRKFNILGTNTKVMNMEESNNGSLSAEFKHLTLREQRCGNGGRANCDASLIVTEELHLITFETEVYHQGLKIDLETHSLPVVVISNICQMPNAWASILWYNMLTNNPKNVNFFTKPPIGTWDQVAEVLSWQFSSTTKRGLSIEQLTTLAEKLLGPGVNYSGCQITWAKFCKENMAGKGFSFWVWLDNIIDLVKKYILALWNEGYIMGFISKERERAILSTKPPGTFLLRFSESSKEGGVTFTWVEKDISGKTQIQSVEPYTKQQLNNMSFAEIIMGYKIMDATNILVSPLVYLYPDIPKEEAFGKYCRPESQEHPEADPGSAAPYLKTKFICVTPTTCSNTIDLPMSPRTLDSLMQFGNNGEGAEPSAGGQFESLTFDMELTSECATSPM

[3] = test system: Polymorphonuclear neutrophil; test: Inhibition of fungal curdlan induced PD-L1 protein expression in mouse polymorphonuclear neutrophils at 20 uM incubated for 16 hrs by ELISA; format: functional, cell-based

Activity [2]: 265 Da
SMILES: C=C1C(=O)O[C@H]2[C@H]1CC[C@]1(C)O[C@@]13CC[C@@](C)(O)[C@H]23
Activity [1]: Non-Toxic | inhibition [3]: Active
